Experimental data taken from PubChem BioAssay AID1259411 (Chemical Carcinogenesis Research Information System (CCRIS), 2018).
Activity calls are given as the source filed them. How the calls were made is not given here.

Test system: rodent carcinogenicity bioassays, tumor incidence
Experiment: CCRIS carcinogenicity studies
How it was run: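 Archive of carcinogenicity, mutagenicity, tumor promotion and tumor inhibition results drawn from journals, NCI reports and other sources, expert-reviewed; covers 1985-2011 and is no longer updated.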

OC[C@@H](O)[C@@H](O)[C@H](O)[C@H](O)CO
carcinogen call (Species: MOUSE, Strain/Sex: B6C3F1/FEMALE, Route: ORAL, Dose: 0, 2.5, 5% IN THE DIET FOR 103 WK (STUDY DURATION: 103 WK), Dose: 0, 2.5, 5% IN THE DIET FOR 103 WK (STUDY DURATION: 103 WK)): inactive; negative
carcinogen call (Species: MOUSE, Strain/Sex: B6C3F1/FEMALE, Route: ORAL, Dose: 0, 25000, 50000 PPM IN DIET, Dose: 0, 25000, 50000 PPM IN DIET): inactive; negative
carcinogen call (Species: MOUSE, Strain/Sex: B6C3F1/MALE, Route: ORAL, Dose: 0, 2.5, 5% IN THE DIET FOR 103 WK (STUDY DURATION: 103 WK), Dose: 0, 2.5, 5% IN THE DIET FOR 103 WK (STUDY DURATION: 103 WK)): inactive; negative
carcinogen call (Species: MOUSE, Strain/Sex: B6C3F1/MALE, Route: ORAL, Dose: 0, 25000, 50000 PPM IN DIET, Dose: 0, 25000, 50000 PPM IN DIET): inactive; negative
carcinogen call (Species: RAT, Strain/Sex: F344/FEMALE, Route: ORAL, Dose: 0, 2.5, 5% IN THE DIET FOR 103 WK (STUDY DURATION: 103 WK), Dose: 0, 2.5, 5% IN THE DIET FOR 103 WK (STUDY DURATION: 103 WK)): inactive; negative
carcinogen call (Species: RAT, Strain/Sex: F344/FEMALE, Route: ORAL, Dose: 0, 25000, 50000 PPM IN DIET, Dose: 0, 25000, 50000 PPM IN DIET): inactive; negative
carcinogen call (Species: RAT, Strain/Sex: F344/MALE, Route: ORAL, Dose: 0, 2.5, 5% IN THE DIET FOR 103 WK (STUDY DURATION: 103 WK), Dose: 0, 2.5, 5% IN THE DIET FOR 103 WK (STUDY DURATION: 103 WK)): inactive; negative
carcinogen call (Species: RAT, Strain/Sex: F344/MALE, Route: ORAL, Dose: 0, 25000, 50000 PPM IN DIET, Dose: 0, 25000, 50000 PPM IN DIET): inactive; negative

CCC(=O)CNCN=O
carcinogen call (Species: HAMSTER, Strain/Sex: SYRIAN/FEMALE, Route: SUBCUTANEOUS, Dose: 4, 8, 16 MG/KG 1/WK FOR LIFE, Dose: 4, 8, 16 MG/KG 1/WK FOR LIFE, Tumor Site: Type of Lesion: NASAL CAVITY: ADENOCARCINOMA, PAPILLOMA, MUCOEPIDERMOID TUMOR, LARYNX OR PHARYNX: PAPILLARY POLYP, PAPILLOMA, ORAL CAVIT, Tumor Site: Type of Lesion: NASAL CAVITY: ADENOCARCINOMA, PAPILLOMA, MUCOEPIDERMOID TUMOR, LARYNX OR PHARYNX: PAPILLARY POLYP, PAPILLOMA, ORAL CAVIT): active; positive
carcinogen call (Species: HAMSTER, Strain/Sex: SYRIAN/MALE, Route: SUBCUTANEOUS, Dose: 2.3, 4.6, 9.2 MG/KG 1/WK FOR LIFE, Dose: 2.3, 4.6, 9.2 MG/KG 1/WK FOR LIFE, Tumor Site: Type of Lesion: NASAL CAVITY: ADENOCARCINOMA, PAPILLOMA, MUCOEPIDERMOID TUMOR, LARYNX OR PHARYNX: PAPILLARY POLYP, PAPILLOMA, ORAL CAVIT, Tumor Site: Type of Lesion: NASAL CAVITY: ADENOCARCINOMA, PAPILLOMA, MUCOEPIDERMOID TUMOR, LARYNX OR PHARYNX: PAPILLARY POLYP, PAPILLOMA, ORAL CAVIT): active; positive

COC(=O)C1=C(C)NC(C)=C(C(=O)OCC(C)(C)CN(C)Cc2ccccc2)C1c1cc([N+](=O)[O-])ccc1F (stereo not given)
carcinogen call (Species: RAT, Strain/Sex: F344/FEMALE, Route: ORAL, Dose: 0, 0.67, 2, 6 MG/KG/D IN DIET FOR 104 WK (STUDY DURATION: 104 WK), Dose: 0, 0.67, 2, 6 MG/KG/D IN DIET FOR 104 WK (STUDY DURATION: 104 WK)): inactive; negative
carcinogen call (Species: RAT, Strain/Sex: F344/MALE, Route: ORAL, Dose: 0, 0.67, 2, 6 MG/KG/D IN DIET FOR 104 WK (STUDY DURATION: 104 WK), Dose: 0, 0.67, 2, 6 MG/KG/D IN DIET FOR 104 WK (STUDY DURATION: 104 WK)): inactive; negative

ClCc1ccccc1
carcinogen call (Species: MOUSE, Strain/Sex: B6C3F1/FEMALE, Route: ORAL (GAVAGE), Dose: 0, 50, 100 MG/KG BW 3 X A WK FOR 2 YRS (TEST MATERIAL SOLVENT: CORN OIL), Dose: 0, 50, 100 MG/KG BW 3 X A WK FOR 2 YRS (TEST MATERIAL SOLVENT: CORN OIL), Tumor Site: Type of Lesion: FORESTOMACH: CARCINOMA AND PAPILLOMA, LUNG: ALVEOLAR-BRONCHIOLAR ADENOMA OR CARCINOMA (HIGH DOSE ONLY, P=0.053)): active; positive
carcinogen call (Species: MOUSE, Strain/Sex: B6C3F1/MALE, Route: ORAL (GAVAGE), Dose: 0, 50, 100 MG/KG BW 3 X A WK FOR 2 YRS (TEST MATERIAL SOLVENT: CORN OIL), Dose: 0, 50, 100 MG/KG BW 3 X A WK FOR 2 YRS (TEST MATERIAL SOLVENT: CORN OIL), Tumor Site: Type of Lesion: FORESTOMACH: CARCINOMA AND PAPILLOMA, LIVER: CARCINOMA OR ADENOMA (LOWER DOSE ONLY), CIRCULATORY SYSTEM: HEMANGIOMA OR H, Tumor Site: Type of Lesion: FORESTOMACH: CARCINOMA AND PAPILLOMA, LIVER: CARCINOMA OR ADENOMA (LOWER DOSE ONLY), CIRCULATORY SYSTEM: HEMANGIOMA OR H): active; positive
carcinogen call (Species: RAT, Route: SUBCUTANEOUS, Tumor Site: Type of Lesion: INJECTION SITE): active; positive
carcinogen call (Species: RAT, Strain/Sex: F344/FEMALE, Route: ORAL (GAVAGE), Dose: 0, 15, 30 MG/KG BW 3 X A WK FOR 2 YRS (TEST MATERIAL SOLVENT: CORN OIL), Dose: 0, 15, 30 MG/KG BW 3 X A WK FOR 2 YRS (TEST MATERIAL SOLVENT: CORN OIL), Tumor Site: Type of Lesion: THYROID: C-CELL NEOPLASMS): active; positive
carcinogen call (Species: RAT, Strain/Sex: F344/MALE, Route: ORAL (GAVAGE), Dose: 0, 15, 30 MG/KG BW 3 X A WK FOR 2 YRS (TEST MATERIAL SOLVENT: CORN OIL), Dose: 0, 15, 30 MG/KG BW 3 X A WK FOR 2 YRS (TEST MATERIAL SOLVENT: CORN OIL)): inactive; negative

CC(N)=S
carcinogen call (Species: MOUSE, Strain/Sex: SWISS, Route: ORAL, Dose: 0.03% IN DIET, Tumor Site: Type of Lesion: LIVER: CARCINOMA): active; positive
carcinogen call (Species: RAT, Strain/Sex: WISTAR/MALE,FEMALE, Route: ORAL, Dose: 0.032% IN DIET, Tumor Site: Type of Lesion: LIVER: BILE DUCT TUMOR, NOS): active; positive

Cc1cc2ncccc2c2nc(N)n(C)c12
carcinogen call (Species: MOUSE, Strain/Sex: C57BL/6N/FEMALE, Route: ORAL, Dose: 0, 300 PPM IN DIET FOR 92 WK (STUDY DURATION: 92 WK), Tumor Site: Type of Lesion: COLON: ADENOCARCINOMA, CECUM: ADENOCARCINOMA, LIVER: HEPATOCELLULAR ADENOMA, HEPATOCELLULAR CARCINOMA, OR FIBROSARCOMA, Tumor Site: Type of Lesion: COLON: ADENOCARCINOMA, CECUM: ADENOCARCINOMA, LIVER: HEPATOCELLULAR ADENOMA, HEPATOCELLULAR CARCINOMA, OR FIBROSARCOMA): active; positive
carcinogen call (Species: MOUSE, Strain/Sex: CDF1/FEMALE, Route: ORAL, Dose: 0, 0.04% IN THE DIET FOR STUDY DURATION (STUDY DURATION: LIFESPAN), Tumor Site: Type of Lesion: FORESTOMACH: PAPILLOMA, SQUAMOUS CELL CARCINOMA, LIVER: HEPATOCELLULAR ADENOMA, HEPATOCELLULAR CARCINOMA): active; positive
carcinogen call (Species: MOUSE, Strain/Sex: CDF1/MALE, Route: ORAL, Dose: 0, 0.04% IN THE DIET FOR STUDY DURATION (STUDY DURATION: LIFESPAN), Tumor Site: Type of Lesion: FORESTOMACH: PAPILLOMA, SQUAMOUS CELL CARCINOMA, LIVER: CHOLANGIOCARCINOMA): active; positive
carcinogen call (Species: RAT, Strain/Sex: F344/MALE, Route: ORAL, Dose: 0, 0.03% IN DIET (DAILY INTAKE: 3.8 MG) FOR 286 D (STUDY DURATION: 286 D), Tumor Site: Type of Lesion: ZYMBAL GLAND: SQUAMOUS CELL CARCINOMA, ORAL CAVITY: SQUAMOUS CELL CARCINOMA OR SEBACEOUS SQUAMOUS CELL CARCINOMA, COLON:, Tumor Site: Type of Lesion: ZYMBAL GLAND: SQUAMOUS CELL CARCINOMA, ORAL CAVITY: SQUAMOUS CELL CARCINOMA OR SEBACEOUS SQUAMOUS CELL CARCINOMA, COLON:): active; positive
carcinogen call (Species: RAT, Strain/Sex: F344/MALE, Route: ORAL, Dose: 0, 0.03% IN DIET (DAILY INTAKE: 5.6 MG) FOR 286 D (STUDY DURATION: 286 D), Tumor Site: Type of Lesion: ZYMBAL GLAND: SQUAMOUS CELL CARCINOMA, ORAL CAVITY: SQUAMOUS CELL CARCINOMA OR SEBACEOUS SQUAMOUS CELL CARCINOMA, COLON:, Tumor Site: Type of Lesion: ZYMBAL GLAND: SQUAMOUS CELL CARCINOMA, ORAL CAVITY: SQUAMOUS CELL CARCINOMA OR SEBACEOUS SQUAMOUS CELL CARCINOMA, COLON:): active; positive
carcinogen call (Species: RAT, Strain/Sex: WISTAR/MALE, Route: INTRAGASTRIC, Dose: 0, 10 MG/KG IN ACIDIFIED WATER 1/D FOR 2 WK (STUDY DURATION: 58 WK), Tumor Site: Type of Lesion: ZYMBAL GLAND: CARCINOMA): active; positive
